Test results published in patent US9682990B2, “Alcohol-, diol-, and carbohydrate-substituted indenoisoquinolines as topoisomerase I inhibitors” (Purdue Research Foundation, priority 2011, dated 2017).
Read-outs that look alike come from different tables or passages of the source. Marks after values point to notes of the source that are not given here.

Columns and labels:
[1] = system: HOP-62 (Lung); assay: NCI Developmental Therapeutics antiproliferative assay, HOP-62; assay type: cell-based, human
Method: (§1) Biological Results. The indenoisoquinoline analogues were tested for antiproliferative activity in the National Cancer Institute's Developmental Therapeutics Assay against cell lines derived from approximately 60 different human tumors.

[2] = system: SF-539 (CNS); assay: NCI Developmental Therapeutics antiproliferative assay, SF-539; assay type: cell-based, human
Method: (§2) Biological Results. The indenoisoquinoline analogues were tested for antiproliferative activity in the National Cancer Institute's Developmental Therapeutics Assay against cell lines derived from approximately 60 different human tumors. […] Results are reported in Table 2 as GI50 values for selected cell lines, and overall antiproliferative potency is quantified as a mean-graph midpoint (MGM).

[3] = system: UACC-62 (Melanoma); assay: NCI Developmental Therapeutics antiproliferative assay, UACC-62; assay type: cell-based, human
Method: as §1

[4] = system: OVCAR-3 (Ovarian); assay: NCI Developmental Therapeutics antiproliferative assay, OVCAR-3; assay type: cell-based, human
Method: as §2

[5] = system: SN12C (Renal); assay: NCI Developmental Therapeutics antiproliferative assay, SN12C; assay type: cell-based, human
Method: as §2

[6] = system: MCF7 (Breast); assay: NCI Developmental Therapeutics antiproliferative assay, MCF7; assay type: cell-based, human
Method: as §2

[7] = system: all human cancer cell lines successfully tested; assay: NCI-60 cell line assay, mean-graph midpoint; assay type: cell-based; conditions: for MGM (mean graph midpoint for growth inhibition): all human cancer cell lines tested, 10^−8 to 10^−4 molar; for GI50: read-out: MGM GI50
Method: as §1, with “tumors. […] The cytotoxicities of the compounds to cultured cancer cells were measured in the National Cancer Institute's 60 cell line assay (a.k.a. NCI-60).” for “tumors.”

[8] = system: cell lines derived from approximately 60 different human tumors; assay: NCI initial one-dose screening assay; assay type: cell-based; conditions: percentage of cell growth, one-dose assay at 10 μM

Row | Compound | GI50 [2] | GI50 [4] | GI50 [5] | GI50 [6] | MGM (mean graph midpoint for growth inhibition) [7] | Growth Percent [8] | also measured
1 | O=C1c2ccccc2-c2c1c1ccccc1c(=O)n2C[C@@H](O)[C@H](O)[C@H](O)CO [Compound 17a, (2′R, 3′S, 4′R)-5,6-Dihydro-6-(2′,3′,4′,5′-tetrahydroxypentyl)-5,11-dioxo-11H-indeno[1,2-c]isoquinoline] | 7.59 µM | > 100 µM | 20 µM | 4.57 µM | 19.9 µM | 58.44% | GI50 [1]: 8.71 µM; GI50 [3]: 7.41 µM
2 | O=C1c2ccccc2-c2c1c1ccccc1c(=O)n2C[C@H](O)[C@H](O)[C@H](O)CO [Compound 17b, (2′S,3′S,4′R)-5,6-Dihydro-6-(2′,3′,4′,5′-tetrahydroxypentyl)-5,11-dioxo-11H-indeno[1,2-c]isoquinoline] | 2.14 µM | 13.5 µM | 2.4 µM | 1.38 µM | 3.31 µM | 17.28% | GI50 [3]: 3.23 µM
3 | O=C1c2ccccc2-c2c1c1ccccc1c(=O)n2C[C@H](O)[C@@H](O)[C@H](O)[C@H](O)CO [Compound 17c, (2′S,3′R,4′R,5′R)-5,6-Dihydro-6-(2′,3′,4′,5′,6′-pentahydroxyhexyl)-5,11-dioxo-11H-indeno[1,2-c]isoquinoline] | – | – | – | – | – | 97.16^e % | –
4 | O=C1c2ccccc2-c2c1c1ccccc1c(=O)n2C[C@H](O)[C@@H](O)[C@H](O)CO [Compound 17d, (2′S,3′R,4′R)-5,6-Dihydro-6-(2′,3′,4′,5′-tetrahydroxypentyl)-5,11-dioxo-11H-indeno[1,2-c]isoquinoline] | 7.94 µM | 24 µM | 2.24 µM | 1.74 µM | 4.07 µM | 34.91% | GI50 [1]: 3.23 µM
5 | O=C1c2ccccc2-c2c1c1ccccc1c(=O)n2C[C@@H](O)[C@@H](O)[C@H](O)CO [Compound 17e, (2′R,3′R,4′R)-5,6-Dihydro-6-(2′,3′,4′,5′-tetrahydroxypentyl)-5,11-dioxo-11H-indeno[1,2-c]isoquinoline] | 11.2 µM | 13.2 µM | 5.01 µM | 1.9 µM | 7.76 µM | 50.62% | GI50 [1]: 6.46 µM; GI50 [3]: 6.31 µM
6 | O=C1c2ccccc2-c2c1c1ccccc1c(=O)n2C[C@@H](O)[C@@H](O)[C@H](O)[C@H](O)CO [Compound 17f, (2′R, 3′R, 4′R, 5′R)-5,6-Dihydro-6-(2′,3′,4′,5′,6′-pentahydroxyhexyl)-5,11-dioxo-11H-indeno[1,2-c]isoquinoline] | – | – | – | – | – | 69.35% | –
7 | O=C1c2ccccc2-c2c1c1ccccc1c(=O)n2C[C@H](O)[C@@H](O)[C@@H](O)CO [Compound 17g, (2′S,3′R,4′S,5′R)-5,6-Dihydro-6-(2′,3′,4′,5′-tetrahydroxypentyl)-5,11-dioxo-11H-indeno[1,2-c]isoquinoline] | – | – | – | – | – | 67.99% | –
8 | C[C@H](O)Cn1c2c(c3ccccc3c1=O)C(=O)c1ccccc1-2 [Compound 27b, (2′S)-5,6-Dihydro-6-(2′-hydroxypropyl)-5,11-dioxo-11H-indeno[1,2-c]isoquinoline] | – | – | – | – | – | 54.88% | –
9 | O=C1c2ccccc2-c2c1c1ccc([N+](=O)[O-])cc1c(=O)n2C[C@H](O)CO [Compound 30, (2′S)-5,6-Dihydro-6-(2′,3′-dihydroxypropyl)-3-nitro-5,11-dioxo-11H-indeno[1,2-c]isoquinoline] | – | – | – | – | 0.156 ± 0.061 µM | – | GI50 [7]: 0.156 µM
10 | NCCCn1c2c(c3ccc([N+](=O)[O-])cc3c1=O)C(=O)c1cc3c(cc1-2)OCO3 [reference compound] | – | – | – | – | – | – | GI50 ([7]; Homo sapiens, Table 3, NCI-60, unit inferred): 0.09 ± 0.04 µM
11 | (1′R)-5,6-Dihydro-6-(3′-hydroxy-1′-methylethyl)-5,11-dioxo-11H-indeno[1,2-c]isoquinoline [Compound 22b] | – | – | – | – | – | 78.60% | –
